Reference: publication PMC10663540, “Structure-based discovery of dual pathway inhibitors for SARS-CoV-2 entry” (Nature Communications, 2023)
Where “and” joins values, the source holds several entries; their conditions need not be identical. Equal values may be shown once. Read-outs that look alike come from different tables or passages of the source.

What was measured:
[1] = system: SARS-CoV-2 Delta variant; test: microbe, parasite or virus in culture; type: cell-based
[2] = system: SARS-CoV-2 Omicron BA.2 variant; test: microbe, parasite or virus in culture; type: cell-based; conditions: for EC50: Severe acute respiratory syndrome coronavirus 2
[3] = Severe acute respiratory syndrome coronavirus 2, Calu-3; read-out: Antiviral efficacy EC50 (95% CI)
[4] = Calu-3, Omicron BA.2, […], read-out: Antiviral efficacy EC50 (95% CI)
[5] = Severe acute respiratory syndrome coronavirus 2, Calu-3, read-out: Antiviral efficacy EC50 (95% CI)
[6] = Severe acute respiratory syndrome coronavirus 2, Calu-3, read-out: Inhibition: Delta
[7] = Calu-3, Omicron BA.2, one representative replicate, before reprocessing, read-out: EC50, original manuscript version
[8] = Calu-3; 0.0012207 μM; replicates
[9] = Calu-3; 0.00488281 μM; replicates
[10] = Calu-3; 0.0195312 μM; replicates
[11] = Calu-3; 0.078125 μM; replicates

## NC(N)=Nc1ccc(C(=O)OCCN2CCN(C(=O)N[C@@H](Cc3ccccc3)C(=O)N[C@H](/C=C/S(=O)(=O)c3ccccc3)CCc3ccccc3)CC2)cc1 [212-148]
[1]; 212-148 8 μM; Fig. 5e
  Inhibition: Delta/Calu-3: 89.60% and 87.76%
[1]; 212-148 40 μM; Fig. 5e
  Inhibition: Delta/Calu-3: 98.01%
[1]; Calu-3; Delta
  Selectivity index (SI = CC50/EC50): 1,476
[1]; Calu-3; delta strain or omicron strain BA.2 (Fig. 5e)
  block of viral replication in TCID50 assay (in words): completely blocked
[1]; Severe acute respiratory syndrome coronavirus 2, Calu-3, 212-148 8 μM; Fig. 5e; read-out: Inhibition: Delta/Calu-3
  inhibition at 8 µM: 85.5%
[1]; Severe acute respiratory syndrome coronavirus 2, Calu-3, 212-148 40 μM; Fig. 5e; read-out: Inhibition: Delta/Calu-3
  inhibition at 40 µM: 96.1%
[1]; Severe acute respiratory syndrome coronavirus 2, Calu-3, 212-148 200 μM; Fig. 5e
  inhibition at 200 µM: 100%
[1]; [3]
  EC50: 235 nM
[2]; 212-148 0.00256 μM, Fig. 5e
  Inhibition: BA.2/Calu-3: 7.11%
[2]; 212-148 0.064 μM, Fig. 5e
  Inhibition: BA.2/Calu-3: 29.70% and 52.65%
[2]; 212-148 8 μM, Fig. 5e
  Inhibition: BA.2/Calu-3: 88.58%
[2]; Calu-3, Omicron BA.2
  Selectivity index (SI = CC50/EC50): 5,391
[2]; Severe acute respiratory syndrome coronavirus 2, Calu-3, 212-148 8 μM, Fig. 5e
  inhibition at 8 µM: 85.9%
[2]; Severe acute respiratory syndrome coronavirus 2, Calu-3, 212-148 40 μM, Fig. 5e
  inhibition at 40 µM: 99.4%
[2]; [4]
  EC50: 64.4 nM

## CN(C)C(=O)COC(=O)Cc1ccc(OC(=O)c2ccc(NC(=N)N)cc2)cc1 [Camostat]
[1]; 0.078125 µM
  Inhibition: Delta: 31.59% and 52.79%
[1]; 0.3125 µM
  Inhibition: Delta: 64%
[1]; 1.25 µM
  Inhibition: Delta: 96.40%
[1]; 5 µM
  Inhibition: Delta: 92.99%
[1]; 20 µM
  Inhibition: Delta: 91.24%
[1]; [5]
  EC50: 109 nM
[1]; [6]
  inhibition at 0.3125 µM: 53.9%
  inhibition at 1.25 µM: 95.4%
  inhibition at 5 µM: 92.4%
  inhibition at 20 µM: 88.9%

## CCOC(=O)C1OC1C(=O)NC(CC(C)C)C(=O)NCCC(C)C (centres unmarked) [E64d]
[2]; 0.0411523 µM
  Inhibition: Omicron BA.2: -1.22%
[2]; 0.123457 µM
  Inhibition: Omicron BA.2: 20.89% and 27.12%
[2]; 0.37037 µM
  Inhibition: Omicron BA.2: 68.35% and 58.49%
[2]; 1.11111 µM
  Inhibition: Omicron BA.2: 89.97% and 78.59%
[2]; 3.33333 µM
  Inhibition: Omicron BA.2: 93.67% and 90.37%
[2]; 10 µM
  Inhibition: Omicron BA.2: 97.22% and 98.95%
[2]; [4]
  EC50: 240 nM
[2]; [7]
  EC50: 227 nM

## CCOC(=O)c1ccc(OC(=O)CCCCCNC(=N)N)cc1 [Gabexate]
[1]; [8]
  Inhibition: Delta: 14.57% and 29.88%
[1]; [9]
  Inhibition: Delta: -54.36% and -37.95%
[1]; [10]
  Inhibition: Delta: -64.93% and -37.95%
[1]; [11]
  Inhibition: Delta: 31.59% and -7.79%
[1]; Calu-3; 0.3125 μM; replicates
  Inhibition: Delta: 39.67%
[1]; Calu-3; 1.25 μM; replicates
  Inhibition: Delta: -34.59% and 12.43%
[1]; Calu-3; 5 μM; replicates
  Inhibition: Delta: 64.87% and -37.95%
[1]; Calu-3; 20 μM; replicates
  Inhibition: Delta: -11.09% and 39.67%
[1]; Calu-3; Delta
  inhibitory efficacy (in words): negligible
[1]; Severe acute respiratory syndrome coronavirus 2, Calu-3, Calu-3; 0.3125 μM; replicates; read-out: Inhibition: Delta
  inhibition at 0.3125 µM: 53.9%
[1]; [3]
  EC50: > 20000 nM

## CN1CCN(C(=O)N[C@@H](Cc2ccccc2)C(=O)N[C@H](/C=C/S(=O)(=O)c2ccccc2)CCc2ccccc2)CC1 [K777]
[1]; Calu-3; 0.00256 μM; replicates
  Inhibition: Delta: -6.46e-6% and 5.80% and -22.49%
[1]; Calu-3; 0.0128 μM; replicates
  Inhibition: Delta: 16.53% (2×) and 0.45%
[1]; Calu-3; 0.064 μM; replicates
  Inhibition: Delta: 24.66% (2×) and 0.45%
[1]; Calu-3; 8 μM; replicates
  Inhibition: Delta: 82.03%
[1]; Calu-3; 40 μM; replicates
  Inhibition: Delta: 97.04%
[1]; Severe acute respiratory syndrome coronavirus 2, Calu-3, Calu-3; 8 μM; replicates; read-out: Inhibition: Delta
  inhibition at 8 µM: 85.5%
[1]; Severe acute respiratory syndrome coronavirus 2, Calu-3, Calu-3; 40 μM; replicates; read-out: Inhibition: Delta
  inhibition at 40 µM: 98%
[1]; [3]
  EC50: 638 nM
[2]; Calu-3, 0.00457247 μM, rep1-rep2
  Inhibition: Omicron BA.2: -0.32% and 3.09%
[2]; Calu-3, 0.123457 μM, rep1-rep2
  Inhibition: Omicron BA.2: 90.17%
[2]; Calu-3, 0.37037 μM, rep1-rep2
  Inhibition: Omicron BA.2: 90.95%
[2]; Calu-3, 1.11111 μM, rep1-rep2
  Inhibition: Omicron BA.2: 85.59%
[2]; Calu-3, 3.33333 μM, rep1-rep2
  Inhibition: Omicron BA.2: 91.43%
[2]; Calu-3, 10 μM, rep1-rep2
  Inhibition: Omicron BA.2: 91.43%
[2]; Severe acute respiratory syndrome coronavirus 2, Calu-3, Calu-3, 0.123457 μM, rep1-rep2
  inhibition at 0.123457 µM: 70.6%
[2]; Severe acute respiratory syndrome coronavirus 2, Calu-3, Calu-3, 0.37037 μM, rep1-rep2
  inhibition at 0.37037 µM: 87.7%
[2]; Severe acute respiratory syndrome coronavirus 2, Calu-3, Calu-3, 1.11111 μM, rep1-rep2
  inhibition at 1.11111 µM: 97.1%
[2]; Severe acute respiratory syndrome coronavirus 2, Calu-3, Calu-3, 3.33333 μM, rep1-rep2
  inhibition at 3.33333 µM: 98%
[2]; Severe acute respiratory syndrome coronavirus 2, Calu-3, Calu-3, 10 μM, rep1-rep2
  inhibition at 10 µM: 99.2%
[2]; [4]
  EC50: 14 nM
[2]; [7]
  EC50: 77.7 nM

## N=C(N)c1ccc2cc(OC(=O)c3ccc(N=C(N)N)cc3)ccc2c1 [Nafamostat]
[1]; 0.00128 µM
  Inhibition: Delta: -1.10% and 5.80% and -6.46e-6%
[1]; 20 µM
  Inhibition: Delta: 99.61%
[1]; [5]
  EC50: 26.3 nM
[1]; [6]
  inhibition at 0.8 µM: 98.8%
  inhibition at 4 µM: 98.6%
  inhibition at 20 µM: 99.8%
  inhibition at […]: 90.6% and 87.8%

## CC(C)(NS(=O)(=O)c1ccc2c(Cl)cnc(N=C(N)N)c2c1)C(=O)O [UK-371804]
[1]; [8]
  Inhibition: Delta: -13.87% and -11.09%
[1]; [9]
  Inhibition: Delta: -7.79% and -36.72%
[1]; [10]
  Inhibition: Delta: -13.87% and -11.09%
[1]; [11]
  Inhibition: Delta: 5.76%
[1]; Calu-3; 0.3125 μM; replicates
  Inhibition: Delta: 29.88% and 14.57%
[1]; Calu-3; 1.25 μM; replicates
  Inhibition: Delta: 77.84%
[1]; Calu-3; 5 μM; replicates
  Inhibition: Delta: 90.58%
[1]; Calu-3; 20 μM; replicates
  Inhibition: Delta: 90.58%
[1]; Calu-3; Delta
  Selectivity index (SI = CC50/EC50): 405
[1]; Severe acute respiratory syndrome coronavirus 2, Calu-3, Calu-3; 0.078125 μM; replicates
  inhibition at 0.078125 µM: 7.48%
[1]; Severe acute respiratory syndrome coronavirus 2, Calu-3, Calu-3; 1.25 μM; replicates; read-out: Inhibition: Delta
  inhibition at 1.25 µM: 77.3%
[1]; Severe acute respiratory syndrome coronavirus 2, Calu-3, Calu-3; 5 μM; replicates; read-out: Inhibition: Delta
  inhibition at 5 µM: 88.6%
[1]; Severe acute respiratory syndrome coronavirus 2, Calu-3, Calu-3; 20 μM; replicates; read-out: Inhibition: Delta
  inhibition at 20 µM: 93%
[1]; [3]
  EC50: 425 nM
